Patent publication US20260071117A1, “FUNABLE FLUORESCENT COMPOUNDS AND USES THEREOF” (Arizona Board of Regents on Behalf of the University of …, priority 2021, published 2026)

Test: Absorbance and fluorescence measurements (excitation maximum, emission maximum, quantum yield vs coumarin 151)
Assay type: physicochemical
Parameters: key to Quantum Yield: fraction relative to coumarin 151 in ethanol standard
Details: measurements run with methanol; for λex: absorbance/excitation maximum; for Quantum Yield: coumarin 151 in ethanol as standard; for Quantum Yield / λem: 2.5 mm slit width; for λem: emission maximum
From the text: All reagents and solvents were acquired from commercially available suppliers and used without further purification. Methanol(dried on molecular sieves-Acroseal) was obtained from Acros. […] 1H and 13C NMR spectra were obtained on a Bruker NMR spectrometer at 500/400 and 125/100 MHz respectively. The data is reported as follows: chemical shift in ppm (δ), multiplicity (s=singlet, d=doublet, dd=doublet of doublets, t=triplet, dt=doublet of triplets, td=triplet of doublets, q=quartet, p=pentet, m=multiplet). Coupling constants are reported in Hertz (Hz) and were automatically generated using known NMR analyzer software (MestReNova), these were then subsequently curated. High-resolution mass spectra were obtained using the positive ESI method for all the compounds, obtained in an Ion Cyclotron Resonance (ICR) spectrometer. Absorbance spectra were obtained using an Agilent 8453 UV-visible spectroscopy system. Fluorescence was measured on a Varian (Agilent) Cary Eclipse Fluorimeter. Quantum yield measurements were calculated and reported using coumarin 151 in ethanol as a standard.^1 Fluorescence scans were obtained using a 2.5 mm slit width unless otherwise noted.
The fluorescence was also measured in different solvents to examine the solvent effects.

| Molecule | λex | Quantum Yield | λem |
| --- | --- | --- | --- |
| COc1cc(OC)cc(-c2nc3cccnn3c2N)c1 [Compound lot, 2-(3,5-dimethoxyphenyl)imidazo[1,2-b]pyridazin-3-amine] | 407 nm | 0.02 | 546 nm |
| COc1ccc(/C=C/c2nc3nc(-c4ccc(OC)cc4)c(/N=C/c4ccc(OC)cc4)n3nc2C)cc1 [Compound 60, (E)-1-(4-methoxyphenyl)-N-(6-(4-methoxyphenyl)-3-((E)-4-methoxystyryl)-2-methylimidazo[1,2-b][1,2,4]triazin-7-yl)methanimine] | 563 nm | 0.19 | 609 nm |
| Cc1nn2c(NC(C)(C)C)c(-c3ccc4ccccc4c3)nc2nc1/C=C/c1ccc2ccccc2c1 [Compound 43, (E)-N-(tert-butyl)-2-methyl-6-(naphthalen-2-yl)-3-(2-(naphthalen-2-yl)vinyl)imidazo[1,2-b][1,2,4]triazin-7-amine] | 485 nm | 0.22 | 643 nm |
| COc1ccc(/C=C/c2nc3nc(-c4ccc(OC)cc4)c(NC(C)(C)C)n3nc2C)cc1 [Compound 44, (E)-N-(tert-butyl)-6-(4-methoxyphenyl)-3-(4-methoxystyryl)-2-methylimidazo[1,2-b][1,2,4]triazin-7-amine] | 486 nm | 0.27 | 643 nm |
| (E)-5-(3,5-dimethoxyphenyl)-10-(3,5-dimethoxystyryl)-2,4-dimethoxy-9-methyl-[1,2,4]triazino[3′, 2′: 2,3]imidazo[4,5-c]isoquinolines [Compound 79] | 498 nm | 0.18 | 608 nm |
| Cc1nn2c(NCc3ccccc3)c(-c3ccc4ccccc4c3)nc2nc1/C=C/c1ccc2ccccc2c1 [Compound 75, (E)-N-benzyl-2-methyl-6-(naphthalen-2-yl)-3-(2-(naphthalen-2-yl)vinyl)imidazo[1,2-b][1,2,4]triazin-7-amine] | 529 nm | 0.34 | 646 nm |
| Cc1nn2c(/N=C/c3ccc4ccccc4c3)c(-c3ccc4ccccc4c3)nc2nc1/C=C/c1ccc2ccccc2c1 [Compound 59, (E)-N-(2-methyl-6-(naphthalen-2-yl)-3-((E)-2-(naphthalen-2-yl)vinyl)imidazo[1,2-b][1,2,4]triazin-7-yl)-1-(naphthalen-2-yl)methanimine] | 526 nm | 0.04 | 601 nm |
| Cc1cc(C)cc(-c2nc3ccccn3c2N)c1 [Compound 101, 2-(3,5-dimethylphenyl)imidazo[1,2-a]pyridin-3-amine] | 343 nm | 0.28 | 474 nm |
| Cc1nn2c(/N=C/c3cccs3)c(-c3cccs3)nc2nc1/C=C/c1cccs1 [Compound 63, (E)-N-(2-methyl-6-(thiophen-2-yl)-3-((E)-2-(thiophen-2-yl)vinyl)imidazo[1,2-b][1,2,4]triazin-7-yl)-1-(thiophen-2-yl)methanimine] | 572 nm | 0.19 | 615 nm |

The remaining lines, values ahead:

| λex | Quantum Yield | λem | Molecule |
| --- | --- | --- | --- |
| 367 nm | 0.01 | 428 nm | COc1cc(-c2nc3c(nc4ccccn43)c3cc(OC)c(OC)c(OC)c23)cc(OC)c1OC [Compound 16c, 2,3,4-trimethoxy-5-(3,4,5-trimethoxyphenyl)pyrido[2′,1′:2,3]imidazo[4,5-c]isoquinoline] |
| 432 nm | 0.25 | 540 nm | CCN(CC)c1ccc(-c2nc3cc(C(=O)OC)ccn3c2N)cc1 [Compound 10ao, methyl 3-amino-2-(4-(diethylamino)phenyl)imidazo[1,2-a]pyridine-7-carboxylate] |
| 341 nm | 0.12 | 486 nm | CCN(CC)c1ccc(-c2nc3ccccn3c2N)cc1 [Compound 10q, 2-(4-(diethylamino)phenyl)imidazo[1,2-a]pyridin-3-amine] |
| 429 nm | 0.03 | 541 nm | COc1cc(-c2nc3cccnn3c2N)cc(OC)c1OC [Compound 10ad, 2-(3,4,5-trimethoxyphenyl)imidazo[1,2-b]pyridazin-3-amine] |
| 399 nm | 0.51 | 512 nm | COC(=O)c1ccn2c(N)c(-c3cc(OC)c(OC)c(OC)c3)nc2c1 [Compound 10al, methyl 3-amino-2-(3,4,5-trimethoxyphenyl)imidazo[1,2-a]pyridine-7-carboxylate] |
| 403 nm | 0.45 | 517 nm | COC(=O)c1ccn2c(N)c(-c3ccc(-c4ccccc4)cc3)nc2c1 [Compound 10aj, methyl 2-([1,1′-biphenyl]-4-yl)-3-aminoimidazo[1,2-a]pyridine-7-carboxylate] |
| 344 nm | 0.30 | 458 nm | CC(C)(C)Nc1c(-c2ccc(-c3nc4ccccn4c3NC(C)(C)C)cc2)nc2ccccn12 [Compound 10ap, 2,2′-(1,4-phenylene)bis(N-(tert-butyl)imidazo[1,2-a]pyridin-3-amine)] |
| 341 nm | 0.40 | 471 nm | COc1cccc(-c2nc3ccccn3c2N)c1OC [Compound 10b, 2-(2,3-dimethoxyphenyl)imidazo[1,2-a]pyridin-3-amine] |
| 325 nm | 0.19 | 510 nm | COC(=O)c1ccn2c(c1)nc1c3cc(OC)cc(OC)c3c(/C=C/c3ccccc3)nc12 [Compound 18c, methyl (E)-2,4-dimethoxy-5-styrylpyrido[2′,1′:2,3]imidazo[4,5-c]isoquinoline-10-carboxylate] |
| 296 nm | 0.07 | 510 nm | COc1cc(-c2nc3c(nc4ncccn43)c3cc(OC)c(OC)c(OC)c23)cc(OC)c1OC [Compound 16g, 2,3,4-trimethoxy-5-(3,4,5-trimethoxyphenyl)pyrimido[2′,1′:2,3]imidazo[4,5-c]isoquinoline] |
| 364 nm | 0.01 | 415 nm | COc1cc(OC)cc(-c2nc3c(nc4ccccn43)c3cc(OC)cc(OC)c23)c1 [Compound 16d, 5-(3,5-dimethoxyphenyl)-2,4-dimethoxypyrido[2′,1′:2,3]imidazo[4,5-c]isoquinoline] |
| 382 nm | 0.35 | 477 nm | COc1cc(OC)cc(-c2nc3cnccn3c2N)c1 [Compound 10s, 2-(3,5-dimethoxyphenyl)imidazo[1,2-a]pyrazin-3-amine] |
| 341 nm | 0.07 | 479 nm | COc1ccc(-c2nc3ccc(N4CCCCC4)cn3c2N)cc1 [Compound 10as, 2-(4-methoxyphenyl)-6-(piperidin-1-yl)imidazo[1,2-a]pyridin-3-amine] |
| 438 nm | 0.05 | 544 nm | Nc1c(-c2ccc(N(c3ccccc3)c3ccccc3)cc2)nc2cccnn12 [Compound 10af, 2-(4-(diphenylamino)phenyl)imidazo[1,2-b]pyridazin-3-amine] |
| 403 nm | 0.42 | 514 nm | COC(=O)c1ccn2c(N)c(-c3cc(OC)cc(OC)c3)nc2c1 [Compound 10v, methyl 3-amino-2-(3,5-dimethoxyphenyl)imidazo[1,2-a]pyridine-7-carboxylate] |
